From patent US20250152781A1, “TISSUE ENGINEERING AND DRUG DELIVERY DEVICE” (Ohio State Innovation Foundation, priority 2022, published 2025) come the findings set out here.

A short description of this data set: Diffusive release of Rose Bengal through sintered electrospun polymer capsule wall in PBS. It is filed as physicochemical. The text has this: To create a generic advantage that dramatically enhances the long-term drug delivery properties of electrospun scaffolds beyond those currently available via electrospinning alone. A little-known aspect of materials processing is that the shrinkage of high surface area polymers (e.g., in electrospun or electrosprayed form) can be used to provide higher density polymers. In the context of electrospun tissue engineering scaffolds, this phenomenon can be used to create relatively dense material from polymer compositions that would be difficult—if not impossible—to create via extrusion. The relatively dense material then creates a solid barrier through which diffusion of the internally-held drug can occur. The simplest version of this process involves creating a hollow tube via electrospinning (FIG. 1), sintering it to full or nearly-full density (thus eliminating open porosity, see FIG. 2), and then inserting the drug of interest contained with the appropriate solvent. Once this is complete, the ends of the tube can be heat-sealed (FIG. 3) using commonly available, purpose-built equipment designed and manufactured for the purpose of heat-sealing plastics of nearly any chemical composition. […]

Consider `O=C([O-])c1c(Cl)c(Cl)c(Cl)c(Cl)c1-c1c2cc(I)c(=O)c(I)c-2oc2c(I)c([O-])c(I)cc12.[Na+].[Na+]` [Rose Bengal], for which, where the note is “95% PCL-5% polyethylene terephthalate wall formed by electrospinning then sintering to full density, after 30+ days of release (FIG. 5)”, the “drug release rate of Rose Bengal through 95% PCL-5% PET wall” value was “above 10 μg/day”. In addition, the “release rate of Rose Bengal through PCL capsule wall” value (PCL wall formed by electrospinning then sintering to full density, after 120 days of exposure to 37° C. phosphate-buffered saline (FIG. 4)) lay in the range of 9 to 10 µg/day.
